Assay [1] relates to psoriasis caused by imiquimod. Nature of the assay: Epithelial thickness of back skin by H&E staining in imiquimod psoriasis animal model. Format: in vivo, Balb/c mice. The settings on record: after treatment for a week, skin application, compared to the IMQ group. An excerpt: (§1) 6-week-old male Balb/c mice (Kangwon Life Science, Korea) were purchased and acclimated for a week, and psoriasis was induced using 5% imiquimod (Donga ST, Korea). FIG. 1 is a schematic experimental scheme of an animal model. Anti-psoriatic efficacy was investigated using a total of 20 animal models including 5 animals per experimental group.
(§2) In order to determine the effect of the extract of Sphallerocarpus gracilis on psoriasis caused by imiquimod, the experimental animals of Section 2-1 were used. The following four experimental groups were constructed and five animals were randomly assigned to each group:
Normal control without any treatment (Non-treatment control, NTC);
Disease group with psoriasis induced using imiquimod by the method of Section 2-1 (IMQ);
Group to the skin of which dexamethasone was applied every day after induction of psoriasis (Positive control, DEX); and
Group to the skin of which the extract of Sphallerocarpus gracilis of Example 1 was applied (Experimental group, M215) […]
After treatment for a week, the back skin tissue was removed from each animal, and then a paraffin block was prepared. The paraffin block was cut to 5 μm to prepare a slide sample, and then the change in the thickness of the skin tissue was measured through H&E staining.

Assay [2] has as its system filaggrin, loricrin, keratin 1 and keratin 14. The assay can be described thus: Immunofluorescence of biomarkers for epithelial tissue damage in back skin of psoriasis animal model. The settings on record: after treatment for a week, IMQ group decreased compared to non-treatment group. Format: in vivo, Balb/c mice.
Text: as §1, §2
The experiment was conducted by inducing psoriasis with IMQ cream and then performing daily application in the amount shown in FIG. 2 to the experimental group and the DEX group. FIG. 3 is an image showing the treatment group for 7 days compared to the psoriasis-induced model as the animal experimental model.
After treatment for a week, back skin tissue was removed from each animal and a paraffin block was then prepared. A paraffin block was cut to 5 μm to prepare a slide sample, and then the change in biomarkers for epithelial tissue damage due to psoriasis was measured through immunofluorescence.

As for `C[C@@H]1C[C@H]2[C@@H]3CCC4=CC(=O)C=C[C@]4(C)[C@@]3(F)[C@@H](O)C[C@]2(C)[C@@]1(O)C(=O)CO` [DEX, dexamethasone], the “thickness of the epithelial layer” value in assay [1] is given as “decreased thickness”. In addition, in assay [2], the “expression level of filaggrin” value was “increased”, the “expression level of keratin 1” value is “increased”, the “expression level of keratin 14” value is given as “increased” and the “expression level of loricrin” value was “increased”.
